{"source": "patent US20220313658A1", "about": "“YAP Inhibition for Wound Healing” (The Board of Trustees of the Leland Stanford Junior …, priority 2019, published 2022)", "tested_on": "dorsal excisional wounds", "test": "Example 2: excisional wound model, hair regrowth after single Verteporfin injection", "type": "in vivo, mouse", "text": "Adult mice were used for cutaneous wound healing experiments in accordance with well-established protocols. Briefly, mice were anesthetized (2% isofluorane), their dorsal hair was removed with depilatory cream, and the dorsal skin was prepped with alcohol wipes. Next, two 6 mm full-thickness circular wounds were placed through the panniculus carnosus on the dorsum of each animal at the same level, roughly 6 mm below the ears and 4 mm lateral to the midline. The wounds were then stented open by 12 mm diameter silicone rings secured around the wound perimeter with glue and 8 simple interrupted Ethilon 6-0 sutures (Ethicon). For mice receiving mechanotransduction inhibitor, 30 μL of Verteporfin (1 mg/mL) was injected locally into the wound base; PBS was injected into wounds for vehicle controls. Post-operative analgesia was accomplished with buprenorphine 0.05 mg/kg every four hours for three doses, and then as indicated. Dressings were changed every other day under anesthesia. […]", "key": {"[1]": {"details": "single local injection immediately following wounding"}}, "data": [{"substance": "verteporfin", "values": [{"measurement": "Regrowth of dermal appendages", "setting": "POD 90 (FIG. 13, C)", "result": "regrowth of hair follicles and other dermal appendages"}, {"measurement": "Hair regrowth", "setting": "[1]", "result": "dramatic increase in hair regrowth"}, {"measurement": "Regeneration of new hair follicles (gross, histology, immunohistochemistry)", "setting": "[1]", "result": "Regeneration of new hair follicles in Verteporfin-treated wounds was observed"}, {"measurement": "Wound closure", "setting": "[1]", "result": "did not delay wound closure"}]}]}
